According to patent US8173841B2, “Tetrahydro-naphthalene derivatives” (Xention Limited, priority 2003, dated 2012):

Experiments:
[1] = target: T1, human VR1 (Homo sapiens, UniProt Q8NER1); test: Capsaicin-induced Ca2+ influx in the human VR1-transfected CHO cell line (Assay 1); format: cell-based; conditions: human VR1-CHOluc9aeq cells, stimulation with 10 nM capsaicin, Fluo-3 AM / FDSS-3000; compounds of purity about 40 to 90%; read-out: Activity Class (IC50 of capsaicin-induced Ca2+ influx)
T1 construct: expressed in transfected cells
T1 sequence (Q8NER1 whole entry): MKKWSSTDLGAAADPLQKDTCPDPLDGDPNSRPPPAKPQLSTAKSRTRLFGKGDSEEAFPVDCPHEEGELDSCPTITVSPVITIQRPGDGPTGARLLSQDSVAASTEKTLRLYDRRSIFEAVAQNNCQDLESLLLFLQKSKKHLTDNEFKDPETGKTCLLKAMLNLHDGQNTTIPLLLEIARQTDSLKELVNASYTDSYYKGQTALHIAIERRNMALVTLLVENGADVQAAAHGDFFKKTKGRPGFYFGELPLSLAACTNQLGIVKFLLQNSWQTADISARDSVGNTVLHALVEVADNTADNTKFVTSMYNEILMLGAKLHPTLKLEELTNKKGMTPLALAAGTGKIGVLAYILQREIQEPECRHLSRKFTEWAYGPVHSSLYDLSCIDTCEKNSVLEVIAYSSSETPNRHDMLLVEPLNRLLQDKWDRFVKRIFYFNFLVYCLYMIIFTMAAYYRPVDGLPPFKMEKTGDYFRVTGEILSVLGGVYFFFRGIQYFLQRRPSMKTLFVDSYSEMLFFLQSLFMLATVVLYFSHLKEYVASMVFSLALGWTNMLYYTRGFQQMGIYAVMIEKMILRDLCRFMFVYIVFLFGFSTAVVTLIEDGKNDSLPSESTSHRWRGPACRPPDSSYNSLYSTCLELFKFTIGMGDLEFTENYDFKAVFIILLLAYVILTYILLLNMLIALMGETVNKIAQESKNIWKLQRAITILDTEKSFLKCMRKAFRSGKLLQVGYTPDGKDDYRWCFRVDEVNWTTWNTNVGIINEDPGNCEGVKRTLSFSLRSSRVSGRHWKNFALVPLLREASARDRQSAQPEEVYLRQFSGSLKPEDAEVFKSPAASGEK
Text: [Measurement of Capsaicin-Induced Ca^2+ Influx in the Human VR1-Transfected CHO Cell Line] (Assay 1)
(1) Establishment of the Human VR1-CHOluc9aeq Cell Line
Human vanilloid receptor (hVR1) cDNA was cloned from libraries of axotomized dorsal root ganglia (WO 00/29577). The cloned hVR1 cDNA was constructed with pcDNA3 vector and transfected into a CHOluc9aeq cell line. The cell line contains aequorin and CRE-luciferase reporter genes as read-out signals. The transfectants were cloned by limiting dilution in selection medium (DMEM/F12 medium (Gibco BRL) supplemented with 10% FCS, 1.4 mM Sodium pyruvate, 20 mM HEPES, 0.15% Sodium bicarbonate, 100 U/ml penicillin, 100 μg/ml streptomycin, 2 mM glutamine, non-essential amino acids and 2 mg/ml G418). Ca^2+ influx was examined in the capsaicin-stimulated clones. A high responder clone was selected and used for further experiments in the project. The human VR1-CHOluc9aeq cells were maintained in the selection medium and passaged every 3-4 days at 1−2.5×10^5 cells/flask ([…]).
(2) Measurement of Ca^2+ influx using FDSS-3000
Human VR1-CHOluc9aeq cells were suspended in a culture medium which is the same as the selection medium except for G418 and seeded at a density of 1,000 cells per well into 384-well plates (black walled clear-base/Nalge Nunc International). Following the culture for 48 hrs the medium was changed to 2 μM Fluo-3 AM (Molecular Probes) and 0.02% Puronic F-127 in assay buffer (Hank's balanced salt solution (HBSS), 17 mM HEPES (pH7.4), 1 mM Probenecid, 0.1% BSA) and the cells were incubated for 60 min at 25° C. After washing twice with assay buffer the cells were incubated with a test compound or vehicle for 20 min at 25° C. Mobilization of cytoplasmic Ca^2+ was measured by FDSS-3000 (λex=488 nm, λem=540 nm/Hamamatsu Photonics) for 60 sec after the stimulation with 10 nM capsaicin. Integral R was calculated and compared with controls.
The data corresponds to the compounds as yielded by solid phase synthesis and thus to levels of purity of about 40 to 90%. For practical reasons, the compounds are grouped in four classes of activity as follows: IC50=A (< or =) 0.1 μM<B (< or =) 0.5 μM<C (< or =) 1 μM<D

SMILES	IC50 [1] [µM]	melting point [°C]
CC(=O)c1ccc(-c2cccc(NC(=O)Nc3cccc4c3CC(O)CC4)c2)cc1 (stereo not drawn) [Example 1-27]	< 0.1	216
O=C(Nc1cccc(-c2ccc(F)c(F)c2)c1)Nc1cccc2c1CC(O)CC2 (stereo not drawn) [Example 1-17]	< 0.1	216
O=C(NCc1ccc(-c2cccc(F)c2)cc1)Nc1cccc2c1CC(O)CC2 (stereo not drawn) [Example 1-38]	< 0.1	191 to 192
O=C(NCc1cccc(-c2ccc(F)cc2)c1)Nc1cccc2c1CC(O)CC2 (stereo not drawn) [Example 1-55]	< 0.1	194 to 195
O=C(NCc1cccc(-c2ccccc2F)c1)Nc1cccc2c1CC(O)CC2 (stereo not drawn) [Example 1-66]	< 0.1	197 to 198
O=C(NCc1cccc(-c2ccc(OC(F)(F)F)cc2)c1)Nc1cccc2c1CC(O)CC2 (stereo not drawn) [Example 1-58]	< 0.1	188 to 189
CC(C)c1ccc(-c2ccc(CNC(=O)Nc3cccc4c3CC(O)CC4)cc2)cc1 (stereo not drawn) [Example 1-52]	< 0.1	202 to 203
O=C(NCc1ccc(-c2ccc(F)c(F)c2)cc1)Nc1cccc2c1CC(O)CC2 (stereo not drawn) [Example 1-41]	< 0.1	191 to 192
CCOC(=O)c1ccc(-c2cccc(NC(=O)Nc3cccc4c3CC(O)CC4)c2)cc1 (stereo not drawn) [Example 1-2]	< 0.1	198 to 200
COc1ccc(OC)c(-c2cccc(CNC(=O)Nc3cccc4c3CC(O)CC4)c2)c1 (stereo not drawn) [Example 1-60]	< 0.1	123 to 124
C[S+]([O-])c1ccc(-c2cccc(CNC(=O)Nc3cccc4c3CC(O)CC4)c2)cc1 (stereo not drawn) [Example 1-74]	< 0.1	110 to 112
Cc1ccc(C)c(-c2ccc(CNC(=O)Nc3cccc4c3CC(O)CC4)cc2)c1 (stereo not drawn) [Example 1-37]	< 0.1	181 to 182
CN(C)c1ccc(-c2ccc(CNC(=O)Nc3cccc4c3CC(O)CC4)cc2)cc1 (stereo not drawn) [Example 1-30]	< 0.1	205 to 206
O=C(Nc1cccc(-c2cccc3ccccc23)c1)Nc1cccc2c1CC(O)CC2 (stereo not drawn) [Example 1-75]	< 0.1	223
O=C(Nc1cccc(-c2ccc(C(=O)O)cc2)c1)Nc1cccc2c1CC(O)CC2 (stereo not drawn) [Example 1-4]	< 0.1	281 to 284
O=C(NCc1ccc(-c2cc(Cl)ccc2Cl)cc1)Nc1cccc2c1CC(O)CC2 (stereo not drawn) [Example 1-34]	< 0.1	139 to 140
O=C(Nc1cccc(-c2ccc(Cl)cc2Cl)c1)Nc1cccc2c1CC(O)CC2 (stereo not drawn) [Example 1-21]	< 0.1	208
Cc1cc(C)cc(-c2cccc(NC(=O)Nc3cccc4c3CC(O)CC4)c2)c1 (stereo not drawn) [Example 1-12]	< 0.1	221
O=C(NCc1ccc(-c2cccc(OC(F)(F)F)c2)cc1)Nc1cccc2c1CC(O)CC2 (stereo not drawn) [Example 1-39]	< 0.1	218 to 219
O=C(Nc1cccc(-c2cc(Cl)cc(Cl)c2)c1)Nc1cccc2c1CC(O)CC2 (stereo not drawn) [Example 1-19]	< 0.1	221
O=C(NCc1ccc(-c2cccc(Cl)c2)cc1)Nc1cccc2c1CC(O)CC2 (stereo not drawn) [Example 1-33]	< 0.1	195 to 196
CN(C)c1ccc(-c2cccc(NC(=O)Nc3cccc4c3CC(O)CC4)c2)cc1 (stereo not drawn) [Example 1-26]	< 0.1	215
O=C(NCc1cccc(-c2ccc(Cl)cc2Cl)c1)Nc1cccc2c1CC(O)CC2 (stereo not drawn) [Example 1-72]	< 0.1	152 to 153
O=C(Nc1cccc(-c2ccc(F)cc2)c1)Nc1cccc2c1CC(O)CC2 (stereo not drawn) [Example 1-16]	< 0.1	228
O=C(Nc1cccc(-c2cccc(Cl)c2Cl)c1)Nc1cccc2c1CC(O)CC2 (stereo not drawn) [Example 1-20]	< 0.1	204
CC(C)c1ccc(-c2cccc(CNC(=O)Nc3cccc4c3CC(O)CC4)c2)cc1 (stereo not drawn) [Example 1-70]	< 0.1	202 to 203
O=C(Nc1cccc(-c2cccc(OC(F)(F)F)c2)c1)Nc1cccc2c1CC(O)CC2 (stereo not drawn) [Example 1-24]	< 0.1	195
O=C(Nc1cccc(-c2cccc(Cl)c2)c1)Nc1cccc2c1CC(O)CC2 (stereo not drawn) [Example 1-18]	< 0.1	209
O=C(Nc1cccc2c1CC(O)CC2)c1ccc(-c2ccc(F)c(F)c2)cc1 (stereo not drawn) [Example 2-1, 3′,4′-Difluoro-N-(7-hydroxy-5,6,7,8-tetrahydronaphthalen-1-yl)biphenyl-4-carboxamide]	< 0.1	210.4 to 212.7
O=C(NCc1ccc(-c2ccc(F)c(Cl)c2)cc1)Nc1cccc2c1CC(O)CC2 (stereo not drawn) [Example 1-42]	< 0.1	205 to 206
